{"source": "patent US20210293825A1", "about": "“METHODS FOR PRECISION THERAPEUTIC TARGETING OF HUMAN CANCER CELL MOTILITY AND KITS THEREOF” (UNITED STATES GOVERNMENT AS REPRESENTED BY THE DEPARTMENT …, priority 2018, published 2021)", "key": {"[1]": {"test_system": "human cord blood CD34+ stem cells", "test": "Hematopoietic stem cell colony formation assay", "type": "cell-based", "details": "colonies at 14 days", "from_the_text": "FIG. 1a is a schematic flow of probe synthesis and development strategy. […] Values are mean±SEM of a single experiment in replicates of N=4, with similar findings in multiple separate experiments (also N=4). […] Values are mean±SEM of a single experiment in replicates of N=24, with similar findings in a separate experiment (also N=24). *Denotes Student's t test P value <0.05, compared to controls. […] Values are mean±SEM from N>2 separate experiments, each in replicates of N=3. […] Values are the mean±SD number of total, CFU-GM, CFU-GEMM or BFU-E colonies at 14 days after treatment with KBU2046, from a single experiment in replicates of N=2. […] Values are the mean±SD of a single experiment, with similar results seen in a separate experiment, both in replicates of N=2.\nHematopoietic Stem Cell Colony Formation Assay. Fourteen-day colony formation assays were conducted as described (Bergan, R. et al., Blood 88, 731-41 (1996)), using human cord blood CD34+ stem cells (AllCells Inc.), using MethoCultExpress™ colony growth media (StemCell Technologies Inc.), performed in replicates of N=2."}, "[2]": {"test": "Examination of organ function after a single intravenous dose", "type": "in vivo", "details": "single IV dose 15, 75 or 125 mg/kg, day 8 and 14", "method": "Histologic examination of tissue. Organs of athymic male mice stained with H&E, Trichrome or Giemsa were microscopically examined by a mouse pathologist in a blinded fashion, and toxicity scored using an established semi-quantitative histological scoring system (Knodell, R. G. et al., Hepatology 1, 431-5 (1981)) (FIG. 14). The following clinical chemistry parameters were measured in blood of CD1 male and female mice by Charles River Research Animal Diagnostic Services: cholesterol, triglycerides, alanine aminotransferase (ALT), aspartate aminotransferase (AST), total bilirubin, glucose, phosphorus, total protein, calcium, blood urea nitrogen (BUN), creatinine, albumin, Na, K, Cl, white blood cells (with differential), red blood cells, hemoglobin, and platelets.\nFor examination of organ function, studies used cohorts of 22-24 gm N=3 female and N=3 male (i.e., N=6 mice total per dose cohort) CD1 (ICR) mice (Charles River). […] On day 8 and 14, important organs were weighed, and the following parameters measured in blood: cholesterol, triglycerides, alanine aminotransferase (ALT), aspartate aminotransferase (AST), total bilirubin, glucose, phosphorus, total protein, calcium, blood urea nitrogen (BUN), creatinine, albumin, Na, K, Cl, white blood cells (with differential), red blood cells, hemoglobin, platelets."}}}
{"smiles": "O=C1c2ccccc2OCC1c1ccc(F)cc1", "note": "(racemic) [KBU2046, (±)-3(4-fluorophenyl)chroman-4-one]", "values": [{"measurement": "toxicity to human bone marrow stem cells", "setting": "[1]", "result": "not toxic"}, {"measurement": "organ weights and blood parameters", "setting": "[2]", "result": "No abnormal alterations in any of these parameters were observed"}]}
